# Measurements from ChEMBL document CHEMBL4673311, “Development of pyrimidone D1 dopamine receptor positive allosteric modulators” (Bioorg Med Chem Lett, 2021).
# Key:
# [1] = molecular target: D(1B) dopamine receptor (Homo sapiens) (UniProt P21918); experiment: Positive allosteric modulator activity at human dopamine D5 receptor expressed in CHO-K1 cells assessed as fold change in dopamine Emax for beta-arrestin2 recruitment at 50 uM incubated for 90 mins by PathHunter assay relative to control; type: cell-based; settings: filed as positive allosteric modulator
# D(1B) dopamine receptor (Homo sapiens), sequence (P21918 whole entry): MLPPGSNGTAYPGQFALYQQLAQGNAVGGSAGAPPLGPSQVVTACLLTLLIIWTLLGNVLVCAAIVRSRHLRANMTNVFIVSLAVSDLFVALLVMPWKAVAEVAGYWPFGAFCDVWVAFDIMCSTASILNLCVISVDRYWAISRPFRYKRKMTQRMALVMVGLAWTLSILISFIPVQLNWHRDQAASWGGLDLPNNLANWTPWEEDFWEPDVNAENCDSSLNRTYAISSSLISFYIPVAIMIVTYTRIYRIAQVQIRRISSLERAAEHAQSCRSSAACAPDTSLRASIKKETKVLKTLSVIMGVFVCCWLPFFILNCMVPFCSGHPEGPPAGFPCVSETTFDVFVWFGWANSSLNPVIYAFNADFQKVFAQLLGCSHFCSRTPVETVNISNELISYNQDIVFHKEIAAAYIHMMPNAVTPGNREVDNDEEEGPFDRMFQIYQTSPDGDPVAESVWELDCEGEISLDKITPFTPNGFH
# [2] = molecular target: D(1B) dopamine receptor (Homo sapiens) (UniProt P21918); experiment: Positive allosteric modulator activity at human dopamine D5 receptor expressed in CHO-K1 cells assessed as fold change in dopamine EC50 for beta-arrestin2 recruitment at 50 uM incubated for 90 mins by PathHunter assay relative to control; type: cell-based; settings: filed as positive allosteric modulator
smiles,measurement,setting,value
Cn1c2ccccc2c(=O)c2c(=O)n(-c3ccccc3)c(C3CCCCC3)nc21,fold change (FC),[1],1.5
same,fold change (FC),[2],2.84
